Measurements reported in patent US20150005347A1, “NITROGEN-CONTAINING HETEROCYCLIC DERIVATIVE HAVING 2-IMINO GROUP AND PEST CONTROL AGENT INCLUDING THE SAME” (MEIJI SEIKA PHARMA CO., LTD., priority 2012, published 2015).
Read-outs that look alike come from different tables or passages of the source.

What was measured:
Format in all cases: in vivo
[1] = system: susceptible populations of Sogatella furcifera; experiment: Soil irrigation test, susceptible populations of Sogatella furcifera
Protocol: (§1) A rice seedling in pot culture was subjected to soil irrigation treatment with a drug solution of the compound of the present invention at a predetermined concentration, which had been prepared so as to be a 10% acetone water. […] Thereafter, the larvae were left to stand in a thermostatic chamber (16 hours of light period-8 hours of dark period) at 25° C. […] The test was performed in duplicate.
(§2) Mortality of larvae(%)={number of dead larvae/(number of survived larvae+number of dead larvae)}×100
Further, for comparison, the test against a populations of Sogatella furcifera which is highly susceptible to fipronil was performed by the same method as described above, and the results thereof are shown in Table 44.
(§3) In addition, for the origin of test pests, bugs collected within the city of Odawara in 2010 as the drug resistant Sogatella furcifera, and bugs collected within the city of Chigasaki in 1970 and then successively reared indoors for a long time as the susceptible populations of Sogatella furcifera were used.

[2] = system: Nilaparvata lugens exhibiting drug resistance to imidacloprid; experiment: Foliar spray test, Nilaparvata lugens exhibiting drug resistance to imidacloprid; settings: 144 h, read-out: mortality of larvae
Protocol: Test Example 16 Pest Control Test of Nilaparvata lugens
(§4) A drug solution of the compound of the present invention at a predetermined concentration, which had been prepared so as to be a 50% acetone water (0.05% Tween20 available), was foliar sprayed to a rice seedling in pot culture. […] Thereafter, the larvae were left to stand in a thermostatic chamber (16 hours of light period-8 hours of dark period) at 25° C. […] Test in duplicate.
as §2
Further, for the origin of test pests, insects of Nilaparvata lugens collected outdoors within the Fukuoka prefecture in 2005 were used.

Aphis gossypii = experiment: Pest control test of Aphis gossypii, cucumber leaf disk foliar spray; settings: Aphis gossypii, foliar
Outline: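 Cucumber leaf disks (2.0 cm) sprayed with compound at a set concentration in 50% acetone water with 0.05% Tween20, air-dried, then infested with first instar larvae; held at 25 °C, 16 h light/8 h dark. Larval mortality (%) = dead/(survived + dead) × 100; duplicate.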

Plutella xylostella = Plutella xylostella control test, cabbage leaf disk foliar spray; settings: Plutella xylostella, foliar
Outline: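 Cabbage leaf disks (5.0 cm) were sprayed with compound in 50% acetone water with 0.05% Tween20, air-dried, then infested with second instar larvae. Disks were held at 25° C under 16 h light/8 h dark, in duplicate. Percent larval mortality was calculated as dead over total larvae.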

[3] = system: Sogatella furcifera exhibiting drug resistance to fipronil; experiment: Soil irrigation test, Sogatella furcifera exhibiting drug resistance to fipronil
Protocol: Test Example 19 Pest Control Test of Sogatella furcifera
as §1, §2, §3

Laodelphax striatella [4] = experiment: Pest control test of Laodelphax striatella, foliar spray on rice seedling; settings: Laodelphax striatellus, foliar
Protocol: Test Example 6 Pest Control Test of Laodelphax striatella
A drug solution of the compound of the present invention at a predetermined concentration, which had been prepared so as to be a 50% acetone water (0.05% Tween20 available), was foliar sprayed to a rice seedling in pot culture. After an air drying process, second instar larvae were released thereto. Thereafter, the larvae were left to stand in a thermostatic chamber (16 hours of light period-8 hours of dark period) at 25° C. […] Test in duplicate.
as §2

[5] = system: Laodelphax striatella exhibiting drug resistance to fipronil; experiment: Soil irrigation test, Laodelphax striatella exhibiting drug resistance to fipronil
Protocol: Test Example 20 Pest Control Test of Laodelphax striatella
as §1, §2
In addition, for the origin of test pests, bugs collected within the Kumamoto prefecture in 2006 as the drug resistant Laodelphax striatella, and bugs successively reared indoors for a long time as the susceptible populations of Laodelphax striatella were used.

Laodelphax striatella [6] = experiment: Pest control test of Laodelphax striatella, soil irrigation treatment of rice seedling; settings: soil irrigation treatment
Text: <Soil Irrigation Treatment Test>
Test Example 10 Pest Control Test of Laodelphax striatellua
(§5) A rice seedling in pot culture was subjected to soil irrigation treatment with a drug solution of the compound of the present invention at a predetermined concentration, which had been prepared so as to be a 10% acetone water. Three days after the treatment, ten second instar larvae of Laodelphax striatella were each released thereto. Thereafter, the larvae were left to stand in a thermostatic chamber (16 hours of light period-8 hours of dark period) at 25° C. […] The test was performed in duplicate.
as §2

Sogatella furcifera = experiment: Pest control test of Sogatella furcifera, soil irrigation treatment
Protocol: Test Example 11 Pest Control Test of Sogatella furcifera
as §5, with “Sogatella furcifera” for “Laodelphax striatella”
as §2

[7] = system: Sogatella furcifera exhibiting drug resistance to fipronil; experiment: Foliar spray test, Sogatella furcifera exhibiting drug resistance to fipronil; settings: 96 h, read-out: mortality of larvae
Protocol: Test Example 17 Pest Control Test of Sogatella furcifera
as §4, with “10%” for “50%”
as §2
Further, for the origin of test pests, insects of Sogatella furcifera collected outdoors within the city of Odawara in 2010 were used.

[8] = 72 h, read-out: mortality of larvae
[9] = read-out: % Mortality, Test Example3 Aphis gossypii
[10] = read-out: % Mortality, Test Example1 Plutella xylostella
[11] = fipronil-resistant vs susceptible

FC(F)(F)C(=S)/N=c1\ccccn1Cc1ccc(Cl)nc1 [Compound 1-20, N-[1-((6-chloropyridin-3-yl)methyl)pyridin-2(1H)-ylidene]-2,2,2-trifluoroethanethioamide]
Insecticidal effects against Sogatella furcifera (mortality of larvae %), Susceptible populations six days after the treatment ([1]; Rate 0.005 mg/pot): 75%
Insecticidal effects against Sogatella furcifera (mortality of larvae %), Susceptible populations six days after the treatment ([1]; Rate 0.01 mg/pot): 88%
mortality at 20 ppm [2]: ≥ 80%
mortality at 20 ppm (Aphis gossypii; [8]): ≥ 80%
mortality at 100 ppm (Aphis gossypii; [8]): ≥ 80%
mortality at 1.25 ppm (Aphis gossypii; [9]): 75%
mortality at 5 ppm (Aphis gossypii; [9]): 100%
mortality at 20 ppm (Aphis gossypii; [9]): 100%
mortality at 100 ppm (Aphis gossypii; [9]): 100%
mortality at 100 ppm (Plutella xylostella; [8]): ≥ 80%
mortality at 5 ppm (Plutella xylostella; [10]): 50%
mortality at 20 ppm (Plutella xylostella; [10]): 100%
mortality at 100 ppm (Plutella xylostella; [10]): 100%
Insecticidal effects against Sogatella furcifera (mortality of larvae %), Drug resistant populations six days after the treatment ([3]; Rate 0.005 mg/pot): 53%
Insecticidal effects against Sogatella furcifera (mortality of larvae %), Drug resistant populations six days after the treatment ([3]; Rate 0.01 mg/pot): 88%
insecticidal effects against drug resistant Sogatella furcifera ([3]; fipronil-resistant): high insecticidal effects
mortality of larvae against drug resistant populations compared with susceptible populations of Sogatella furcifera [3, 11]: equivalent mortality of larvae
mortality at 1.25 ppm (Laodelphax striatella [4]; 144 h, read-out: mortality of larvae): ≥ 80%
mortality at 1.25 ppm (Laodelphax striatella [4]; read-out: % Mortality, Test Example6 Laodelphax striatella): 95%
Insecticidal effects against Laodelphax striatella (mortality of larvae %), Drug resistant populations six days after the treatment ([5]; Rate 0.005 mg/pot, drug resistant populations): 79%
insecticidal effects against drug resistant Laodelphax striatella ([5]; fipronil-resistant): high insecticidal effects
mortality of larvae against drug resistant populations compared with susceptible populations of Laodelphax striatella [5, 11]: equivalent mortality of larvae
% Mortality, Test Example 10 Laodelphax striatella (Laodelphax striatella [6]; 0.005 mg/pot): 75%
% Mortality, Test Example 10 Laodelphax striatella (Laodelphax striatella [6]; 0.01 mg/pot): 91%
% Mortality, Test Example 10 Laodelphax striatella (Laodelphax striatella [6]; 0.05 mg/pot): 100%
% Mortality, Test Example 11 Sogatella furcifera (Sogatella furcifera; 0.005 mg/pot): 53%
% Mortality, Test Example 11 Sogatella furcifera (Sogatella furcifera; 0.01 mg/pot): 88%
mortality at 20 ppm [7]: ≥ 80%
